Assay: Pharmacokinetic study, oral exposure in rats
Type: in vivo
Details: male Sprague-Dawley rats, single oral dose 10 mg/kg, plasma
Description: Pharmacokinetic studies of select compounds were performed to assess the pharmacokinetic properties. Male Sprague-Dawley rats were administered a single oral dose of the test compound at 10 mg/kg (dose concentration: 2 mg/mL, dose volume: 5 ml/kg) via oral gavage. Blood samples were collected via jugular vein at pre-dose, post-dose 5 min, 15 min, 30 min, 1 h, 2 h, 4 h, 6 h, 8 h, 10 h and 24 h, and centrifuged (8000 rpm for 6 minutes at 2-8° C.). The resulting plasma fractions were analyzed by LC/MS/MS to determine the concentration of the test compound.

Cc1cc(N)nc(C)c1CNC(=O)c1cn(Cc2ccc3ncc(Cl)cc3c2)c2cnc(C#N)cc12 [Example 134, N-((6-amino-2,4-dimethylpyridin-3-yl)methyl)-1-((3-chloroquinolin-6-yl)methyl)-5-cyano-1H-pyrrolo[2,3-c]pyridine-3-carboxamide]
AUC: BLQ

Cc1cc(N)nc(C)c1CNC(=O)c1c[nH]c(Cc2ccc3ncc(Cl)cc3c2)n1 [Example 5, N-((6-amino-2,4-dimethylpyridin-3-yl)methyl)-2-((3-chloroquinolin-6-yl)methyl)-1H-imidazole-5-carboxamide]
AUC: BLQ

Cc1cc(N)nc(C)c1CNC(=O)c1cn(Cc2ccc3ncc(Cl)cc3c2)c2ccncc12 [Example 35, N-((6-amino-2,4-dimethylpyridin-3-yl)methyl)-1-((3-chloroquinolin-6-yl)methyl)-1H-pyrrolo[3,2-c]pyridine-3-carboxamide]
AUC: BLQ
